# Counter-ions that a name gives are not always drawn.
# What was measured:
# Acute toxicity = conditions: mouse, in vivo, ip; intraperitoneal, male mice, 7 days
# Source text: Typical compounds used in the immunoactivator according to the invention were each suspended in physiological salt solution and intraperitoneally administered into groups of male mice, each consisting of 5 mice, followed by breeding and observing for 7 days.
# [1] = test system: antibody-producing cells in the spleen; experiment: IgM antibody producing action in mice, time of administration (FIG. 1); assay type: in vivo, CDF1 mice (male, 12 weeks old)
# Method: (ii) Groups of CDF1 mice (male, 12 weeks old), each group consisting of 5 mice, were each venously injected with 1×10^8 sheep red blood cells for immunization. The thus injected mice were each orally dosed with a compound of the invention (compound No. 3 in Table 1) at the same day as of the injection (0 day), 1 day, 2 days and 3 days after the injection in an amount of 100 μg/mouse. Four days after the immunization, the number of antibody-producing cells in the spleen cells of each mouse of each group was determined.
# [2] = test system: antibody-producing cells in the spleen; experiment: IgM antibody producing action in mice, dose dependence (antibody-producing cells/spleen, SRBC immunization); assay type: in vivo, CDF1 mice (male, 10 weeks old); conditions: oral; for Number of antibody-producing cells/spleen (average value): 4 days after administration
# [3] = test system: delayed-type hypersensitivity; experiment: Action on delayed-type hypersensitivity (foot sole swelling, SRBC antigen); assay type: in vivo, CDF1 mice (male, 12 weeks old); conditions: oral; for Thickness of Sole Swelling (± S.D.): 24 hours after second injection
# Source text: In order to evaluate an action of compounds of the invention on cellular immunity which plays the most important role on the protection reaction against viral infection, the action was investigated according to the method of Lagrange et al.* using as an index the effect on the delayed-type hypersensitivity in which sheep red blood cells were provided as antigen**.
# *Lagrange, P. H., G. B. Mackaness & T. E. Miller: J. Exp. Med., 139: 528-542, 1974.
# **Ishizuka, M. T. Matsuda, N. Kanbayashi, S. Fukasawa, T. Takeuchi, T. Aoyagi & H. Umezawa: J. Antibiotics 33: 642-652, 1980.
# That is, groups of CDF1 mice (male, 12 weeks old), each group consisting of 5 mice, were each immunized by being subcutaneously injected with 10^8 sheep red blood cells at the soles of right hind leg and were simultaneously orally dosed with 4 μg-1 mg/mouse of a compound of the invention (compound No. 3 in Table 1). Four days after the administration, 10^8 sheep red blood cells were subcutaneously injected into each mouse at the sole of the left hind leg, thereby causing the reaction. 24 hours after the injection, the thickness of the foot sole was measured and degrees of swelling of the soles were compared with one another to judge the action.
# myeloid cells = experiment: Action on production of glanulocytic macrophage colony (CFU-C) at myeloid cell culture; assay type: cell-based, mouse
# Method: In accordance with the methods of Metcalf* and Stanley et al.**, the myeloid cells of mouse were cultured in soft agar to which a colony stimulating factor (CSF)*** and different amounts of a compound of the invention (Compound No. 3 in Table 1) to investigate the action on the glanulocytic macrophage colony.
# **Stanley, E. R., M. Cifone, P. M. Heard & V. Deffendi: J. Exp. Med. 143: 631-647, 1976.
# ***The mouse serum obtained 6 hours after venous injection of 5 μg of LPS into CDF1 mouse was added in an amount of 0.0125 ml as the colony stimulating factor.
# mouse's spleen cells = experiment: Antibody-producing action based on cell culture (Mishell & Dutton), FIG. 2; conditions: 0.005-20 μg/ml tested; 4 days culture with 1×10^6 sheep red blood cells
# Source text: The action of a compound of the invention on the antibody-producing system with respect to sheep red blood cells was investigated on the basis of the mouse's spleen cell culture according to the Mishell & Dutton's method* and its modification**.
# **Click, R. E., L. Benck & B. J. Alter: Cellular Immunol. 3: 156-160, 1972.
# splenic cells = experiment: Action on blastogenesis of splenic cells (3H-thymidine incorporation); assay type: cell-based, CDF1 mice (female, 10 weeks old)
# Method: (1) The splenic cells of CDF1 mice (female, 10 weeks old) were collected and were cultured in a 10% foetal calf serum-added RPMI 1640 medium adding a lectin such as Concanavalin A (Con A) or Lipopolysaccharide (LPS) and a compound of the invention (Compound No. 3 in Table 1), and the blasting effect was determined using as an index incorporation of ^3 H-thymidine into the cultured splenic cells.
# (2) The splenic cells of the mouse to which had been added different amounts of Con A or LPS and then 10 μg/ml of the inventive compound (Compound No. 3 in Table 3) were cultured to know the effect on the blasting reaction. […] Further, in order to know whichever lectin is greatly influenced by the compound of the invention for the potentiation, a stimulatory index* was calculated from the results of FIGS. 3a and 3b. […] [formula]
# peritoneal macrophages = experiment: Action on phagocytosis of peritoneal macrophage; assay type: in vivo, CDF1 mice (female, 8 weeks old); conditions: for T/C (phagocytosis of macrophage): peritoneal injection
# Method: The action of the inventive compound on the phagocytosis of macrophage was investigated.
# CDF1 mice (female, 8 weeks old) were each peritoneally injected with 2 ml of a thioglycolate medium to allow the peritoneal macrophages to be released. Four days after the injection, a compound of the invention (Compound No. 3 in Table 1) was peritoneally injected into each mouse in an amount ranging from 1 μg to 1 mg/mouse. 18 hours after the injection, the mice of each group was peritoneally washed with the Dulbecco phosphate buffer solution to collect the peritoneal macrophages, which were then suspended in a serum-free Dulbecco phosphate buffer solution and the suspension was placed in plastic petri dishes, followed by keeping in a 5% carbonic acid gas culture container at 37° C. for 2 hours to obtain adhesive cells. To the respective petri dishes containing the adhesive cells was added a solution of a germ Saccharomyces cervisiae. After having kept the temperature for 30 minutes, the germ solution was removed, followed by culturing 4 hours, washing, and subjecting to the Giemsa staining. Then, the number of cells phagocytizing the germ were counted under microscope to determine the effect of the compound*.
# *M. Ishizuka; S. Fukasawa, T. Masuda, J. Sato, N. Kanbayashi, T. Takeuchi & H. Umezawa; J. Antibiotics 32: 330-339, 1980.
# [4] = Solubility in water of salts; assay type: physicochemical; conditions: hydrochloride
# [5] = Mus musculus, Macrophage, read-out: T/C (CFU-C)
compound,measurement,setting,value
c1ccc(C2Oc3ccccc3C3SCCN23)cc1 (stereo not shown) [Compound No. 1],LD50 at 168 h,Acute toxicity,500 mg/kg
"O=Cc1ccc(C2Oc3ccccc3C3SCCN23)cc1 (stereo not shown) [Compound No. 3, 4-(2,3-dihydro-5H,10bH-thiazolo[3,2-c][1,3]benzoxadine-5-yl)benzaldehyde]",Time of administration after stimulation of antigen giving maximum potentiation,[1]; 100 μg/mouse oral,1 to 2 days
same,"Number of antibody-producing cells over non-administered groups (in words, FIG. 1)","[1]; 100 μg/mouse oral at day 0, 1, 2 or 3 after immunization",increased numbers of antibody-producing cells over the non-administered groups
same,Antibody production (in words),[2]; 100-400 μg/mouse,potentiate the antibody production
same,T/C (antibody-producing cells),[2]; 0.4 μg/mouse,106%
same,Number of antibody-producing cells/spleen (average value),[2]; 0.4 μg/mouse,"221,130"
same,T/C (antibody-producing cells),[2]; 1.6 μg/mouse,104%
same,Number of antibody-producing cells/spleen (average value),[2]; 1.6 μg/mouse,"217,890"
same,T/C (antibody-producing cells),[2]; 6.2 μg/mouse,91%
same,Number of antibody-producing cells/spleen (average value),[2]; 6.2 μg/mouse,"189,216"
same,T/C (antibody-producing cells),[2]; 25 μg/mouse,84%
same,Number of antibody-producing cells/spleen (average value),[2]; 25 μg/mouse,"176,040"
same,T/C (antibody-producing cells),[2]; 100 μg/mouse,191%
same,Number of antibody-producing cells/spleen (average value),[2]; 100 μg/mouse,"398,520"
same,T/C (antibody-producing cells),[2]; 400 μg/mouse,148%
same,Number of antibody-producing cells/spleen (average value),[2]; 400 μg/mouse,"308,610"
same,Delayed-type hypersensitivity vs non-administered control (in words),[3]; 4 μg to 1 mg/mouse,more pronounced potentiation on the delayed-type hypersensitivity than the non-administered control groups
same,T/C (sole swelling),[3]; 4 μg/mouse,231%
same,Thickness of Sole Swelling (± S.D.),[3]; 4 μg/mouse,14.8 ± 1.1 × 0.1 mm
same,T/C (sole swelling),[3]; 16 μg/mouse,150%
same,Thickness of Sole Swelling (± S.D.),[3]; 16 μg/mouse,9.6 ± 1.0 × 0.1 mm
same,T/C (sole swelling),[3]; 62 μg/mouse,181%
same,Thickness of Sole Swelling (± S.D.),[3]; 62 μg/mouse,11.6 ± 1.6 × 0.1 mm
same,T/C (sole swelling),[3]; 250 μg/mouse,198%
same,Thickness of Sole Swelling (± S.D.),[3]; 250 μg/mouse,12.7 ± 1.7 × 0.1 mm
same,T/C (sole swelling),[3]; 1000 μg/mouse,208%
same,Thickness of Sole Swelling (± S.D.),[3]; 1000 μg/mouse,13.3 ± 1.3 × 0.1 mm
same,Number of CFU-C (±S.D.),myeloid cells; 0.001 μg/ml,140 ± 6
same,Number of CFU-C (±S.D.),myeloid cells; 0.01 μg/ml,156 ± 9
same,Number of CFU-C (±S.D.),myeloid cells; 0.1 μg/ml,189 ± 3
same,Number of CFU-C (±S.D.),myeloid cells; 1 μg/ml,221 ± 6
same,Number of CFU-C (±S.D.),myeloid cells; 10 μg/ml,144 ± 16
same,Production of CFU-C (in words),myeloid cells; 0.1 to 1 μg/ml,remarkably potentiate the production of CFU-C
same,activity at 0.001 µg/mL,myeloid cells; [5],103%
same,activity at 0.01 µg/mL,myeloid cells; [5],115%
same,activity at 0.1 µg/mL,myeloid cells; [5],139%
same,activity at 1 µg/mL,myeloid cells; [5],163%
same,activity at 10 µg/mL,myeloid cells; [5],106%
same,Concentration range of significant potentiation of the antibody-producing action (FIG. 2),mouse's spleen cells,0.3 to 5 µg/mL
same,"Blasting reaction, FIGS. 3a and 3b (in words)","splenic cells; 10 μg/ml compound, Con A or LSP 0.5-8 μg/ml",potentiate the blasting reaction
same,"Stimulatory index Con A vs LPS, FIG. 4 (in words)","splenic cells; 10 μg/ml compound, calculated from FIGS. 3a and 3b",the Con A which is T-cell mitogen is more greatly acted with the compound than the LPS
same,Blasting reaction caused by the lectins (in words),"splenic cells; 10 μg/ml, Con A and LPS",accelerate the blasting reaction caused by the lectins including either of Con A and LPS
same,3H-thymidine incorporation into splenic cells,"splenic cells; compound 5 μg/ml, Con A (0.5 μg/ml)",2131 cpm/culture
same,3H-thymidine incorporation into splenic cells,"splenic cells; compound 5 μg/ml, LSP (0.5 μ/ml)",1068 cpm/culture
same,3H-thymidine incorporation into splenic cells,"splenic cells; compound 5 μg/ml, no lectin",148 cpm/culture
same,3H-thymidine incorporation into splenic cells,"splenic cells; compound 10 μg/ml, Con A (0.5 μg/ml)",9982 cpm/culture
same,3H-thymidine incorporation into splenic cells,"splenic cells; compound 10 μg/ml, LSP (0.5 μ/ml)",4007 cpm/culture
same,3H-thymidine incorporation into splenic cells,"splenic cells; compound 10 μg/ml, no lectin",811 cpm/culture
same,3H-thymidine incorporation into splenic cells,"splenic cells; compound 20 μg/ml, Con A (0.5 μg/ml)",1267 cpm/culture
same,3H-thymidine incorporation into splenic cells,"splenic cells; compound 20 μg/ml, LSP (0.5 μ/ml)",665 cpm/culture
same,3H-thymidine incorporation into splenic cells,"splenic cells; compound 20 μg/ml, no lectin",105 cpm/culture
same,Incorporation of 3H-thymidine without lectin (in words),splenic cells; culture free of any lectin,more or less expedites the incorporation of ^3 H-thymidine into the splenic cells
same,Phagocytosis of macrophage (in words),peritoneal macrophages; 1 μg-100 μg/mouse,improve the phagocytosis of macrophage
same,T/C (phagocytosis of macrophage),peritoneal macrophages; 1 μg/mouse,127%
same,T/C (phagocytosis of macrophage),peritoneal macrophages; 10 μg/mouse,133%
same,T/C (phagocytosis of macrophage),peritoneal macrophages; 100 μg/mouse,137%
same,T/C (phagocytosis of macrophage),peritoneal macrophages; 1000 μg/mouse,115%
"O=Cc1ccc(C2Oc3ccccc3C3SCCN23)cc1 (stereo not shown) [hydrochloride of the compound No. 3, 4-(2,3-dihydro-5H,10bH-thiazolo[3,2-c][1,3]benzoxadine-5-yl)benzaldehyde (Compound No. 3) hydrochloride]",Solubility in water or physiological salt solution (in words),[4],soluble in water or physiological salt solution
